Measurements taken from publication PMC10917278, “Structural insights into the modulation Of SOD1 aggregation By a fungal metabolite Phialomustin-B: Therapeutic potential in ALS” (PLOS ONE, 2024).

Target: T1, SOD1^WT (Homo sapiens, UniProt P00441)
T1 construct: The full-length constructs of SOD1-wild type (aa: 1–145); His-tag (cleaved yes); made in house; host or cells: E. coli BL21 DE3
Experiment: Analytical size-exclusion chromatography (SEC) aggregation assay, SOD1^WT
Type: biochemical
Details: PB 30X, reducing conditions
Description: Fig 6 Aggregation studies of metallated and reduced SOD1^WT and SOD1^A4V on treatment with PB. ThT fluorescence was monitored during the co-incubation of metallated SOD1^WT (50 μM) (a) or SOD1^A4V (50 μM) (b) with PB at 1:30 molar ratio at 37 °C with continuous shaking, under reduced conditions. The values were normalized to the maximal ThT intensity elicited by SOD1^WT or SOD1^A4V and fitted to a Boltzmann sigmoidal equation. The control and PB-treated species were compared to analyse the effects of PB on the aggregation of SOD1^WT and SOD1^A4V. Error bars indicate the standard deviation. Analytical SEC of metallated SOD1^WT (50 μM) (c) and SOD1^A4V (50 μM) (d) with PB were analyzed under reducing conditions before and after 24 hrs and 48 hrs incubation at 37 °C. The first peak eluting at the volume was denoted as oligomerized SOD1^WT/SOD1^A4V (L). The second, third, and fourth peaks were calculated as trimer (T), dimer (D), and monomer (M) species of SOD1^WT/SOD1^A4V running at 14.5 ml, 15.7 ml, and 16.5 ml, respectively. […] The monomer (M), dimer (D), trimer (T), and large aggregate (L) species are shown as green, purple, red, and black dotted lines, respectively. All the experiments were performed for n = 3 biological replicates. […]
Fig 7 Aggregation studies of de-metallated and reduced SOD1^WT and SOD1^A4V on treatment with PB. ThT fluorescence was monitored during the co-incubation of de-metallated SOD1^WT (50 μM) (a) or SOD1^A4V (50 μM) (b) with PB at 1:30 molar ratio at 37 °C with continuous shaking, under reduced conditions. […] Analytical SEC of de-metallated SOD1^WT (50 μM) (a) and SOD1^A4V (50 μM) (b) with PB were analysed under reducing conditions before and after 24 hrs and 48 hrs incubation at 37 °C. […] The second, third, and fourth peaks were calculated as trimer (T), dimer (D), and monomer (M) species of SOD1^WT/SOD1^A4V running at 14.5 ml, 15.7 ml, and 16.5 ml, respectively. […]

[1] = Metallated SOD1^WT 50 μM, 24 and 48 hrs at 37 °C

T1 sequence (P00441 whole entry): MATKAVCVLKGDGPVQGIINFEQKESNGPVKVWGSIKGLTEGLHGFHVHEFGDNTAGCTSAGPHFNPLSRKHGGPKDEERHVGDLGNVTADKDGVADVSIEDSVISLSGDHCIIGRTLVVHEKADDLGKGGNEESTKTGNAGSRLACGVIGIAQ

Structure (SMILES): CCCC[C@H](C)/C=C(C)/C=C/C(=O)O [PB, (S, 2E, 4E)-4,6-dimethyldeca-2,4-dienoic acid]
- formation of trimer species (SEC) (De-metallated (EDTA) SOD1^WT 50 μM, 48hrs): insignificantly reduced compared to the control
- formation of higher aggregates (SEC, eluting at 9.2 ml) [1]: may induce the formation of higher aggregates in a time-dependent manner
- toxic trimer population (SEC) [1]: time-dependent alleviation of toxic trimer population
